6 molecules from patent EP4806891A1 (Kangbaida (Sichuan) Biotechnology Co., Ltd., priority 2023, dated 2025) can be followed below.

Where only a bound is given, the exact number is not on record here.

In one experiment the target is T1, HEK-Blue-hTLR7 cells (Homo sapiens, UniProt Q9NYK1).
T1 construct: expressed in transfected cells; host or cells: HEK-Blue-hTLR7 cells (HEK293-derived reporter line)
T1 sequence (Q9NYK1 27-1049): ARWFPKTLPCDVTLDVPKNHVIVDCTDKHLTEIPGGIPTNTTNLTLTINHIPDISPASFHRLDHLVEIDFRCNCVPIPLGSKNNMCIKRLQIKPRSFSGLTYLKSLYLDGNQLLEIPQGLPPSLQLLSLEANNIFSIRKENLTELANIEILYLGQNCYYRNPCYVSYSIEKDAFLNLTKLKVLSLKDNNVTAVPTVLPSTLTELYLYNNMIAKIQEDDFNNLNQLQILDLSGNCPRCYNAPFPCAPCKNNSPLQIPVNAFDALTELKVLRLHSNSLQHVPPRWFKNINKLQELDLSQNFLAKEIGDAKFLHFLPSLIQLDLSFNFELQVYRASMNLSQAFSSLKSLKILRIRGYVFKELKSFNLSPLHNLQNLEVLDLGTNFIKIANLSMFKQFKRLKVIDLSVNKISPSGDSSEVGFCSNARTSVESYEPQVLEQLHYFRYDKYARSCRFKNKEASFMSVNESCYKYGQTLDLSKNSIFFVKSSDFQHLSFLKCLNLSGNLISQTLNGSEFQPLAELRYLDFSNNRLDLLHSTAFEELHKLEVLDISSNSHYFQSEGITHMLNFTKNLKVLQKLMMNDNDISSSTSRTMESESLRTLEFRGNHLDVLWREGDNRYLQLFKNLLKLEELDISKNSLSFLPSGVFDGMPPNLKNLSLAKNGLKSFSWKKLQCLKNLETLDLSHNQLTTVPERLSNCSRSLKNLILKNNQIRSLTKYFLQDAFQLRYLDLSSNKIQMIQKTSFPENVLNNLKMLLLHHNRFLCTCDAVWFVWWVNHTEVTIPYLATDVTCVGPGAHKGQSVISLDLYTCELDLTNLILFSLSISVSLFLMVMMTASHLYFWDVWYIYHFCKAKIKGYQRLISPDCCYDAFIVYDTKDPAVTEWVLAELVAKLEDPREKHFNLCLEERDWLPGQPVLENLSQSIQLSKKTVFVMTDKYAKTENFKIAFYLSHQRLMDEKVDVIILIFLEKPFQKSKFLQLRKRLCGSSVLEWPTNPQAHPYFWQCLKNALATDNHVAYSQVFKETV
The experiment in a line: HEK-Blue-hTLR7 cell inhibition assay. It counts as cell-based. To be noted: R848 0.8 µM, 16 h, OD 620 nm, read-out: TLR7 IC50. As for the experimental part: (§1) HEK-Blue-hTLR7/8/9 cell inhibition assay
(§2) 1. HEK-Blue-hTLR7/8 cells (1 × 10^4 cells/well) and HEK-Blue-hTLR9 cells (1.5 × 10^4 cells/well) were seeded in a 384-well cell culture plate, with a volume of 30 µL per well. The plate was incubated at 37°C in a 5% CO2 incubator for 4 h. 2. The compound was prepared with DMSO and diluted in DMEM medium to 10 concentrations (1:3 dilution), with final concentrations of 10000, 3333.3, 1111.1, 370.4, 123.5, 41.2, 13.7, 4.6, 1.5, and 0.5 nM; R848 was prepared with DMSO and diluted in DMEM medium, with final concentrations of 0.8 µM (HEK-Blue-hTLR7) and 3 µM (HEK-Blue-hTLR8); ODN2006 was prepared with endotoxin-free water and diluted in DMEM medium, with a final concentration of 1 µM. 3. Cells treated with DMSO were used as the blank control group, while cells treated solely with Resiquimod (R848) were used as the positive control group for HEK-Blue-hTLR7/8, and cells treated solely with ODN2006 were used as the positive control group for HEK-Blue-hTLR9. Cells treated with the test compound together with R848 or ODN2006 were used as the test group. Two parallel wells were set for each group and were placed at 37°C in a 5% CO2 incubator for incubation. 4. After being incubated for 4 h, the 384-well plate of HEK-Blue-hTLR7/8 was taken out from the incubator, and R848 alone or both R848 and the diluted compound were separately added into each well. The plate was placed at 37°C in a 5% CO2 incubator for incubation for 16 h; the 384-well plate of HEK-Blue-hTLR9 was taken out from the incubator, and ODN2006 alone or both ODN2006 and the diluted compound were added separately to each well. The plate was incubated at 37°C in a 5% CO2 incubator for 16 h. 5. After being incubated for 16 h, the 384-well plate was removed from the incubator and centrifuged at 1000 rpm for 1 minute. The optical density value of each well at 620 nm was measured using a multifunctional microplate reader. 6. The cell inhibition rate was calculated as (1-(OD620 test group-OD620 blank group)/(OD620 positive group-OD620 blank group))×100%, and the half maximal inhibitory concentration (IC50) was calculated through curve fitting. Table 1: Activity of the compounds of the present disclosure in HEK-Blue-hTLR7/8/9 cellular assays

In a further experiment the target is T2, HEK-Blue-hTLR8 cells (Homo sapiens, UniProt Q9NR97).
T2 construct: expressed in transfected cells; host or cells: HEK-Blue-hTLR8 cells (HEK293-derived reporter line)
T2 sequence (Q9NR97 27-1041): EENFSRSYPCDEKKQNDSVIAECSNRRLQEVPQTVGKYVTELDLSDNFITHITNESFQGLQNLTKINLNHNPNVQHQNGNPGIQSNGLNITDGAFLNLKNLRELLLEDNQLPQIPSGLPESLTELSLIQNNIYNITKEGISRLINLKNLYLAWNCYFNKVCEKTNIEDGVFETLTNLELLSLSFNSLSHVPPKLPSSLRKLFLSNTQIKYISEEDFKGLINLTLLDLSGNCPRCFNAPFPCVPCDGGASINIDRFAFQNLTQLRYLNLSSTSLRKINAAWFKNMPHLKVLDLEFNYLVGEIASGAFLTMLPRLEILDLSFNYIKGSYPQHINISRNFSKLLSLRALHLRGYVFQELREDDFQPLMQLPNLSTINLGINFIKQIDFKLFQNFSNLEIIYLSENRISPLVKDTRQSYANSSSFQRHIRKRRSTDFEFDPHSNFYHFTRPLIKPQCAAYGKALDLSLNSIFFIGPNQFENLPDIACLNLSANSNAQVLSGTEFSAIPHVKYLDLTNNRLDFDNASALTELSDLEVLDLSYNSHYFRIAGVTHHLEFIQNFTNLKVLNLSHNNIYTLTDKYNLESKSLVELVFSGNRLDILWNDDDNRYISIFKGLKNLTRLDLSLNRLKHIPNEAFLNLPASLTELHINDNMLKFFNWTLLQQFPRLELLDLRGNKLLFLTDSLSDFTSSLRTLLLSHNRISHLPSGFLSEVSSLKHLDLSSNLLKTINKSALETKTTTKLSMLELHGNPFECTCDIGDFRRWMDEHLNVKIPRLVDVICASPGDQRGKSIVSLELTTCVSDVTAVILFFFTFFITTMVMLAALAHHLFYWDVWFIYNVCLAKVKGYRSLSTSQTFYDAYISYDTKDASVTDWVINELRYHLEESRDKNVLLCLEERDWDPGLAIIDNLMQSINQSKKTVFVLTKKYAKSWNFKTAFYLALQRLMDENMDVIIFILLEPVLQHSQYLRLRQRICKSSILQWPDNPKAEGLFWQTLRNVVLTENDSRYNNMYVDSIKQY
The experiment in a line: HEK-Blue-hTLR8 cell inhibition assay. The class given is cell-based. To be noted: R848 3 µM, 16 h, OD 620 nm, read-out: TLR8 IC50. As for the experimental part:
as §1, §2

Regarding `Cc1ccc2c(N3C[C@]4(c5nnc(C6CCN(C)CC6)o5)C[C@]4(C(F)(F)F)C3)ccc(C#N)c2n1` [Compound 73, 2-methyl-5-((1S,5R)-1-(5-(1-methylpiperidin-4-yl)-1,3,4-oxadiazol-2-yl)-5-(trifluoromethyl)-3-azabicyclo[3.1.0]hexan-3-yl)quinoline-8-carbonitrile], the IC50 on HEK-Blue-hTLR7 cells and on HEK-Blue-hTLR8 cells was more than 1000 nM each time.

Take `CN1CCC(n2cnc([C@]34CN(c5ccc(C#N)n6ncc(F)c56)C[C@@]3(C(F)(F)F)C4)n2)CC1` [Compound 74, 3-fluoro-4-((1S,5R)-1-(1-(1-methylpiperidin-4-yl)-1H-1,2,4-triazol-3-yl)-5-(trifluoromethyl)-3-azabicyclo[3.1.0]hexan-3-yl)pyrazolo[1,5-a]pyridine-7-carbonitrile]: the IC50 on HEK-Blue-hTLR7 cells and on HEK-Blue-hTLR8 cells was less than 100 nM each time.

Take `CN1[C@@H]2CC[C@H]1C[C@@H](c1nnc([C@]34CN(c5ccc(C(F)(F)F)c6ncccc56)C[C@@]3(C(F)(F)F)C4)o1)C2` [Compound 78, 2-((1R,3R,5S)-8-methyl-8-azabicyclo[3.2.1]octan-3-yl)-5-((1S,5R)-5-(trifluoromethyl)-3-(8-(trifluoromethyl)quinolin-5-yl)-3-azabicyclo[3.1.0]hexan-1-yl)-1,3,4-oxadiazole]: the IC50 on HEK-Blue-hTLR7 cells and on HEK-Blue-hTLR8 cells was less than 100 nM in each case.

With `CN(C)C12CCC(c3nnc([C@]45CN(c6ccc(C(F)(F)F)c7ncccc67)C[C@@]4(C(F)(F)F)C5)o3)(CC1)CC2` [Compound 82, N,N-dimethyl-4-(5-((1S,5R)-5-(trifluoromethyl)-3-(8-(trifluoromethyl)quinolin-5-yl)-3-azabicyclo[3.1.0]hexan-1-yl)-1,3,4-oxadiazol-2-yl)bicyclo[2.2.2]octan-1-amine], the concentration for half-maximal inhibition (IC50) on HEK-Blue-hTLR7 cells and on HEK-Blue-hTLR8 cells was less than 100 nM throughout.

For the molecule `CN1CCC(c2nnc([C@]34CN(c5ccc(C(F)(F)F)c6nccnc56)C[C@@]3(C(F)(F)F)C4)o2)CC1` [Compound 88, 2-(1-methylpiperidin-4-yl)-5-((1S,5R)-5-(trifluoromethyl)-3-(8-(trifluoromethyl)quinoxalin-5-yl)-3-azabicyclo[3.1.0]hexan-1-yl)-1,3,4-oxadiazole], the IC50 on HEK-Blue-hTLR7 cells and on HEK-Blue-hTLR8 cells was less than 100 nM throughout.

`CN1CCC(Oc2nnc([C@]34CN(c5ccc(C#N)n6nccc56)C[C@@]3(C(F)(F)F)C4)o2)CC1` [Compound 89, 4-((1S,5R)-1-(5-((1-methylpiperidin-4-yl)oxy)-1,3,4-oxadiazol-2-yl)-5-(trifluoromethyl)-3-azabicyclo[3.1.0]hexan-3-yl)pyrazolo[1,5-a]pyridine-7-carbonitrile]: the IC50 on HEK-Blue-hTLR7 cells and at HEK-Blue-hTLR8 cells was less than 100 nM each time.
